# From patent publication US9956220B2, “Imidazo-pyridazine derivatives as casein kinase 1 δ/ϵ inhibitors” (Bristol-Myers Squibb Company, priority 2014, dated 2018)
# Experiments:
# CK1δ = CK1δ (Homo sapiens, UniProt P48730); experiment: CK1δ kinase assay (Caliper LABCHIP electrophoretic separation of fluoresceinated peptide substrate and product); type: biochemical; settings: 200 pM CK1δ, 50 μM ATP, 1.5 μM peptide substrate, 22 hours at room temperature
# Description: (§1) CK1ϵ and CK1δ Kinase Assays
# (§2) The kinase assay was performed in V-bottom 384-well plates.
# (§3) The reaction was incubated at room temperature for 22 hours and terminated by adding 45 μl of 35 mM EDTA to each sample. The reaction mixture was analyzed on the Caliper LABCHIP®3000 (Caliper, Hopkinton, Mass.) by electrophoretic separation of the unphosphorylated substrate and phosphorylated product. […] Compounds were dissolved at 10 mM in dimethylsulfoxide (DMSO) and evaluated at eleven concentrations. IC50 values were derived by non-linear regression analysis.
# CK1ϵ = CK1ϵ (Homo sapiens, UniProt P49674); experiment: CK1ϵ kinase assay (Caliper LABCHIP electrophoretic separation of fluoresceinated peptide substrate and product); type: biochemical; settings: 200 pM CK1ϵ, 50 μM ATP, 1.5 μM peptide substrate, 22 hours at room temperature; read-out: CK1ε (IC50)
# CK1ϵ, sequence (P49674 whole entry): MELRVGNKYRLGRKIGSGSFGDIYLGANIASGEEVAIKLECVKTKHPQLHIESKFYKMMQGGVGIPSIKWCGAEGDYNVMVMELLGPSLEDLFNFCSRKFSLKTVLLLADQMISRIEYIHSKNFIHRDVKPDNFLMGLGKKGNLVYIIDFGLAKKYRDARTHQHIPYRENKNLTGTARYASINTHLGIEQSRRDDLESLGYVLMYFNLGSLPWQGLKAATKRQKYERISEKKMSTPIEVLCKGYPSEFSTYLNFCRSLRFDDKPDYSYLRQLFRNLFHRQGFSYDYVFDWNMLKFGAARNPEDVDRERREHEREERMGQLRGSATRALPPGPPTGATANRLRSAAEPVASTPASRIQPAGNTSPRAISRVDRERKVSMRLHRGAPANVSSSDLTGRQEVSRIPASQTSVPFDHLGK
# Description: as §1, §2, §3
# CK1δ, sequence (P48730 whole entry): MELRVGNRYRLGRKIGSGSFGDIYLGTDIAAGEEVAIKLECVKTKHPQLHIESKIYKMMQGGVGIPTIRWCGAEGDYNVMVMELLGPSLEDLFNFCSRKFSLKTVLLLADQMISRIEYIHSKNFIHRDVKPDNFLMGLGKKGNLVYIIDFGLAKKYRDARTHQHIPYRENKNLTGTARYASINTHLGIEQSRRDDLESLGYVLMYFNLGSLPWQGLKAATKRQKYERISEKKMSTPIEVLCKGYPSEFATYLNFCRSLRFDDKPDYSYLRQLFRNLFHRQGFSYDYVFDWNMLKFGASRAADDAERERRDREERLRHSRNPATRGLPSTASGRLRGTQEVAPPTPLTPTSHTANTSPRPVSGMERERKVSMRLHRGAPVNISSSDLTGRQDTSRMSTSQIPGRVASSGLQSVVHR
SMILES,IC50 (CK1δ) [nM],IC50 (CK1ϵ) [nM]
"Cc1nc(-c2ccncc2)sc1C(=O)Nc1cn2nc(-c3c(-c4ccc(F)cc4)nn4c3CNCC4)ccc2n1 [Example 2, N-(6-(2-(4-Fluorophenyl)-4,5,6,7-tetrahydropyrazolo[1,5-a]pyrazin-3-yl)imidazo[1,2-b]pyridazin-2-yl)-4-methyl-2-(pyridin-4-yl)thiazole-5-carboxamide]",0.2,2.4
"O=C(Nc1cn2nc(-c3c(-c4ccc(F)cc4)nn4c3CNCC4)ccc2n1)c1ccnc(N2CCOCC2)c1 [Example 4, N-(6-(2-(4-Fluorophenyl)-4,5,6,7-tetrahydropyrazolo[1,5-a]pyrazin-3-yl)imidazo[1,2-b]pyridazin-2-yl)-2-morpholinoisonicotinamide]",0.3,1.3
"O=C(Nc1cn2nc(-c3c(-c4ccc(F)cc4)nn4c3CNCC4)ccc2n1)c1ccnc(C(F)(F)F)c1 [Example 10, N-(6-(2-(4-Fluorophenyl)-4,5,6,7-tetrahydropyrazolo[1,5-a]pyrazin-3-yl)imidazo[1,2-b]pyridazin-2-yl)-2-(trifluoromethyl)isonicotinamide]",2.1,12.6
"Cc1nc(C(F)(F)F)ccc1C(=O)Nc1cn2nc(-c3c(-c4ccc(F)cc4)nn4c3CNCC4)ccc2n1 [Example 11, N-(6-(2-(4-Fluorophenyl)-4,5,6,7-tetrahydropyrazolo[1,5-a]pyrazin-3-yl)imidazo[1,2-b]pyridazin-2-yl)-2-methyl-6-(trifluoromethyl)nicotinamide]",1.8,15.2
"O=C(Nc1cn2nc(-c3c(-c4ccc(F)cc4)nn4c3CN(C(=O)c3ccncc3)CC4)ccc2n1)c1ccnc(F)c1 [Example 13, 2-Fluro-N-(6-(2-(4-fluorophenyl)-5-isonicotinoyl-4,5,6,7-tetrahydropyrazolo[1,5-a]pyrazin-3-yl)imidazo[1,2-b]pyridazin-2-yl) isonicotinamide]",0.5,4.5
"O=C(Nc1cn2nc(-c3c(-c4ccc(F)cc4)nn4c3CN(C(=O)CC(F)(F)F)CC4)ccc2n1)c1ccnc(F)c1 [Example 15, 2-Fluoro-N-(6-(2-(4-fluorophenyl)-5-(3,3,3-trifluoropropanoyl)-4,5,6,7-tetrahydropyrazolo [1,5-a]pyrazin-3-yl)imidazo[1,2-b]pyridazin-2-yl)isonicotinamide]",0.2,0.7
"O=C(Nc1cn2nc(-c3c(-c4ccc(F)cc4)nn4c3CN(C(=O)c3ccc(F)c(F)c3)CC4)ccc2n1)c1ccnc(F)c1 [Example 18, N-(6-(5-(3,4-Difluorobenzoyl)-2-(4-fluorophenyl)-4,5,6,7-tetrahydropyrazolo[1,5-a]pyrazin-3-yl)imidazo[1,2-b]pyridazin-2-yl)-2-fluoroisonicotinamide]",0.5,5.6
"O=C(Nc1cn2nc(-c3c(-c4ccc(F)cc4)nn4c3CN(C(=O)c3ccccc3F)CC4)ccc2n1)c1ccnc(F)c1 [Example 23, 2-Fluoro-N-(6-(5-(2-fluorobenzoyl)-2-(4-fluorophenyl)-4,5,6,7-tetrahydropyrazolo[1,5-a]pyrazin-3-yl)imidazo[1,2-b]pyridazin-2-yl) isonicotinamide]",0.1,0.4
"CN1CCn2nc(-c3ccc(F)cc3)c(-c3ccc4nc(NC(=O)c5ccnc(F)c5)cn4n3)c2C1 [Example 26, 2-Fluoro-N-(6-(2-(4-fluorophenyl)-5-methyl-4,5,6,7-tetrahydropyrazolo [1,5-a]pyrazin-3-yl)imidazo[1,2-b]pyridazin-2-yl)isonicotinamide]",0.4,7.3
"O=C(Nc1cn2nc(-c3c(-c4ccc(F)cc4)nn4c3CN(CCC(F)(F)F)CC4)ccc2n1)c1ccnc(F)c1 [Example 27, 2-Fluoro-N-(6-(2-(4-fluorophenyl)-5-(3,3,3-trifluoropropyl)-4,5,6,7-tetrahydropyrazolo[1,5-a]pyrazin-3-yl)imidazo[1,2-b]pyridazin-2-yl)isonicotinamide]",0.5,3.6
"O=C(Nc1cn2nc(-c3c(-c4ccc(F)cc4)nn4c3CN(CCCF)CC4)ccc2n1)c1ccnc(F)c1 [Example 28, 2-Fluoro-N-(6-(2-(4-fluorophenyl)-5-(3-fluoropropyl)-4,5,6,7-tetrahydropyrazolo[1,5-a]pyrazin-3-yl)imidazo[1,2-b]pyridazin-2-yl)isonicotinamide]",0.2,2.5
"O=C(Nc1cn2nc(-c3c(-c4ccc(F)cc4)nn4c3CN(C3COC3)CC4)ccc2n1)c1ccnc(F)c1 [Example 30, 2-Fluoro-N-(6-(2-(4-fluorophenyl)-5-(oxetan-3-yl)-4,5,6,7-tetrahydropyrazolo[1,5-a]pyrazin-3-yl)imidazo[1,2-b]pyridazin-2-yl)isonicotinamide]",0.5,6.5

# Further compounds by falling IC50 (CK1δ), results first:
IC50 (CK1δ) [nM],IC50 (CK1ϵ) [nM],SMILES
0.8,4.9,"O=C(Nc1cn2nc(-c3c(-c4ccc(F)cc4)nn4c3CN(C(=O)CCC(F)(F)F)CC4)ccc2n1)c1ccnc(F)c1 [Example 16, 2-Fluoro-N-(6-(2-(4-fluorophenyl)-5-(4,4,4-trifluorobutanoyl)-4,5,6,7-tetrahydropyrazolo[1,5-a]pyrazin-3-yl)imidazo[1,2-b]pyridazin-2-yl) isonicotinamide]"
0.6,3.1,"CC(C)C(=O)N1CCn2nc(-c3ccc(F)cc3)c(-c3ccc4nc(NC(=O)c5ccnc(F)c5)cn4n3)c2C1 [Example 22, 2-Fluoro-N-(6-(2-(4-fluorophenyl)-5-isobutyryl-4,5,6,7-tetrahydropyrazolo[1,5-a]pyrazin-3-yl)imidazo[1,2-b]pyridazin-2-yl) isonicotinamide]"
0.5,3.7,"O=C(Nc1cn2nc(-c3c(-c4ccc(F)cc4)nn4c3CNCC4)ccc2n1)c1ccnc(F)c1 [Example 1, 2-Fluoro-N-(6-(2-(4-fluorophenyl)-4,5,6,7-tetrahydropyrazolo[1,5-a]pyrazin-3-yl)imidazo[1,2-b]pyridazin-2-yl)isonicotinamide]"
0.5,5.1,"O=C(Nc1cn2nc(-c3c(-c4ccc(F)cc4)nn4c3CNCC4)ccc2n1)c1ccncc1 [Example 3, N-(6-(2-(4-Fluorophenyl)-4,5,6,7-tetrahydropyrazolo[1,5-a]pyrazin-3-yl)imidazo[1,2-b]pyridazin-2-yl)isonicotinamide]"
0.5,3.1,"O=C(Nc1cn2nc(-c3c(-c4ccc(F)cc4)nn4c3CN(C(=O)c3ccc(F)cc3)CC4)ccc2n1)c1ccnc(F)c1 [Example 14, 2-Fluoro-N-(6-(5-(4-fluorobenzoyl)-2-(4-fluorophenyl)-4,5,6,7-tetrahydropyrazolo[1,5-a]pyrazin-3-yl)imidazo[1,2-b]pyridazin-2-yl) isonicotinamide]"
0.5,7,"O=C(Nc1cn2nc(-c3c(-c4ccc(F)cc4)nn4c3CN(C(=O)c3ccnc(F)c3)CC4)ccc2n1)c1ccnc(F)c1 [Example 20, 2-Fluoro-N-(6-(5-(2-fluoroisonicotinoyl)-2-(4-fluorophenyl)-4,5,6,7-tetrahydropyrazolo[1,5-a]pyrazin-3-yl)imidazo[1,2-b]pyridazin-2-yl) isonicotinamide]"
0.4,4.7,"O=C(Nc1cn2nc(-c3c(-c4ccc(F)cc4)nn4c3CNCC4)ccc2n1)c1cc(F)nc(F)c1 [Example 5, 2,6-Difluoro-N-(6-(2-(4-fluorophenyl)-4,5,6,7-tetrahydropyrazolo[1,5-a]pyrazin-3-yl)imidazo[1,2-b]pyridazin-2-yl)isonicotinamide]"
0.4,2.9,"N#CCC(=O)N1CCn2nc(-c3ccc(F)cc3)c(-c3ccc4nc(NC(=O)c5ccnc(F)c5)cn4n3)c2C1 [Example 24, N-(6-(5-(2-Cyanoacetyl)-2-(4-fluorophenyl)-4,5,6,7-tetrahydropyrazolo[1,5-a]pyrazin-3-yl)imidazo[1,2-b]pyridazin-2-yl)-2-fluoroisonicotinamide]"
0.4,6,"O=C(Nc1cn2nc(-c3c(-c4ccc(F)cc4)nn4c3CN(C3CCC3)CC4)ccc2n1)c1ccnc(F)c1 [Example 29, N-(6-(5-Cyclobutyl-2-(4-fluorophenyl)-4,5,6,7-tetrahydropyrazolo[1,5-a]pyrazin-3-yl)imidazo[1,2-b]pyridazin-2-yl)-2-fluoroisonicotinamide]"
0.3,2.3,"O=C(Nc1cn2nc(-c3c(-c4ccc(F)cc4)nn4c3CNCC4)ccc2n1)c1ccnc(-c2cccnc2)c1 [Example 6, N-(6-(2-(4-Fluorophenyl)-4,5,6,7-tetrahydropyrazolo[1,5-a]pyrazin-3-yl)imidazo[1,2-b]pyridazin-2-yl)-[2,3′-bipyridine]-4-carboxamide]"
0.3,2,"CC(=O)N1CCn2nc(-c3ccc(F)cc3)c(-c3ccc4nc(NC(=O)c5ccnc(F)c5)cn4n3)c2C1 [Example 12, N-(6-(5-Acetyl-2-(4-fluorophenyl)-4,5,6,7-tetrahydropyrazolo[1,5-a]pyrazin-3-yl)imidazo[1,2-b]pyridazin-2-yl)-2-fluoroisonicotinamide]"
0.2,2.7,"O=C(Nc1cn2nc(-c3c(-c4ccc(F)cc4)nn4c3CN(C(=O)c3cccc(F)c3)CC4)ccc2n1)c1ccnc(F)c1 [Example 19, 2-Fluoro-N-(6-(5-(3-fluorobenzoyl)-2-(4-fluorophenyl)-4,5,6,7-tetrahydropyrazolo[1,5-a]pyrazin-3-yl)imidazo[1,2-b]pyridazin-2-yl) isonicotinamide]"
0.2,3,"O=C(Nc1cn2nc(-c3c(-c4ccc(F)cc4)nn4c3CN(C(=O)c3cccnc3)CC4)ccc2n1)c1ccnc(F)c1 [Example 21, 2-Fluoro-N-(6-(2-(4-fluorophenyl)-5-nicotinoyl-4,5,6,7-tetrahydropyrazolo[1,5-a]pyrazin-3-yl)imidazo[1,2-b]pyridazin-2-yl) isonicotinamide]"
